The kinase profiling compilation of Christmann-Franck et al. (2016)

What was measured:
Test in all cases: radiometric filter-binding kinase assay, Kinaseprofiler
[1] = test system: DDR2 (human), Q16832 [S642A]; conditions: ATP 200 µM
[2] = test system: EPHB2 (human), P29323 [A848S/K918E]; conditions: ATP 10 µM
[3] = test system: MAPK9 (human), P45984 [S51N]; conditions: ATP 45 µM
CDK2 CCNA2 (human) = CDK2 CCNA2 (human) (UniProt P24941+P20248); conditions: ATP 45 µM
CDK2 CCNE1 (human) = CDK2 CCNE1 (human) (UniProt P24941+P24864); conditions: ATP 120 µM
CDK3 CCNE1 (human) = CDK3 CCNE1 (human) (UniProt Q00526+P24864); conditions: ATP 200 µM
CDK7 CCNH MNAT1 (human) = CDK7 CCNH MNAT1 (human) (UniProt P50613+P51948+P51946); conditions: compound 10.0 µM; ATP 90 µM
MTOR FKBP1A (human) = MTOR FKBP1A (human) (UniProt P42345+P62942); conditions: ATP 45 µM
[4] = biological target: PRKAA2 PRKAB1 PRKAG1 (human) (UniProt P54619+P54646+Q9Y478); conditions: ATP 45 µM
PRKAA2 PRKAB1 PRKAG1 (human), sequence (P54619 whole entry, looked up): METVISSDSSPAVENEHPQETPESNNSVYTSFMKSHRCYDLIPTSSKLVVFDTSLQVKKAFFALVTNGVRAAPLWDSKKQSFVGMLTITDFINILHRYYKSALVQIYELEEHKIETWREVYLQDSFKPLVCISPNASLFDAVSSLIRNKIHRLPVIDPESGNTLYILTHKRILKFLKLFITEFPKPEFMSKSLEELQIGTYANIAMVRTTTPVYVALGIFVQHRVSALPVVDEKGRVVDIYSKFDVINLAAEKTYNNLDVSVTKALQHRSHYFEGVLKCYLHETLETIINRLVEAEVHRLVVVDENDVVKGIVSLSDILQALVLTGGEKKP
PRKAA2 PRKAB1 PRKAG1 (human), sequence (P54646 whole entry, looked up): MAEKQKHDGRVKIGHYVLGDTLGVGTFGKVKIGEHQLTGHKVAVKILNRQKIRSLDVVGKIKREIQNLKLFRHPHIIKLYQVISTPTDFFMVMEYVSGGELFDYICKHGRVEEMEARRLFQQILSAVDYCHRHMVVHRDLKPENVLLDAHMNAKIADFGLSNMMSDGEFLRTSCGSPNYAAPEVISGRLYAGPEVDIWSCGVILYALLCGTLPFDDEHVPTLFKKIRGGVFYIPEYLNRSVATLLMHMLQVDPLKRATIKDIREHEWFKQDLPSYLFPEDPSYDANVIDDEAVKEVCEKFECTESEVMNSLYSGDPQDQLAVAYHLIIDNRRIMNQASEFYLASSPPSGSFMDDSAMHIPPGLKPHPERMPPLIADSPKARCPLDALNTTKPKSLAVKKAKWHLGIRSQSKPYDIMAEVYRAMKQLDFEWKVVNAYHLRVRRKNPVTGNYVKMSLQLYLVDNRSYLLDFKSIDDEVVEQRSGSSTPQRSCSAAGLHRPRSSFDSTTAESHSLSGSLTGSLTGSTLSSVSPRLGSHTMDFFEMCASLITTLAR
PRKAA2 PRKAB1 PRKAG1 (human), sequence (Q9Y478 whole entry, looked up): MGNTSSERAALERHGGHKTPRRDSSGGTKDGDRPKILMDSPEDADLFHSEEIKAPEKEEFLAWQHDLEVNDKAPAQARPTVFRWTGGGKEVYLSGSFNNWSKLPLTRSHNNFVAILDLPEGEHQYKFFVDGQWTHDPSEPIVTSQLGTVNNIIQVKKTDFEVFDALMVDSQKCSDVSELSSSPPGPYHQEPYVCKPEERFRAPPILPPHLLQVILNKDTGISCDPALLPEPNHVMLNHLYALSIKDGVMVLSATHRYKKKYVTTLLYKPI

DDR2 (human), Q16832 [S642A], sequence (Q16832 whole entry, looked up, stated change not applied): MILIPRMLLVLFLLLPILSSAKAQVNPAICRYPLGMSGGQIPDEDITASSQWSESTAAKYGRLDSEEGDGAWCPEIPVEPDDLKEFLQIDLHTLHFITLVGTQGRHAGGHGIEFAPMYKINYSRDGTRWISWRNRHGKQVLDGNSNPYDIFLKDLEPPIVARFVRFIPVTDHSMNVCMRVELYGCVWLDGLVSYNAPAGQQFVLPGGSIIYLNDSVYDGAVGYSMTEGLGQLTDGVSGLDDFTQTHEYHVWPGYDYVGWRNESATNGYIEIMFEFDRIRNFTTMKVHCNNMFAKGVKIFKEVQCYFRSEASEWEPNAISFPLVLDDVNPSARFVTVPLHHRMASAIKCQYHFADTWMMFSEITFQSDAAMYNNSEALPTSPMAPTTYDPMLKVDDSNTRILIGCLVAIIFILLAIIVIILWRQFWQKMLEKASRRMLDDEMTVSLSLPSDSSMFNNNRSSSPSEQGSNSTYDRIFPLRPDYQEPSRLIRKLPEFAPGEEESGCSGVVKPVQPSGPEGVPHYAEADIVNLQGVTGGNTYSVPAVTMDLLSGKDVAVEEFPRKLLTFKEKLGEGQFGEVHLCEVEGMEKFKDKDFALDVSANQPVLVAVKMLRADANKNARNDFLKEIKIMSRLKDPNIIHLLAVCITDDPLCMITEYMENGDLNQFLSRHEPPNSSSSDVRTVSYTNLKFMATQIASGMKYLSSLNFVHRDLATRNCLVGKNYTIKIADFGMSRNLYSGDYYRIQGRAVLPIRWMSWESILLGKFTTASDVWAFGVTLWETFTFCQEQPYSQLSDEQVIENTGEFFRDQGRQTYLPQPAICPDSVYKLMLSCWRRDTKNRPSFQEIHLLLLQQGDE
MTOR FKBP1A (human), sequence (P62942 whole entry, looked up, other chains not shown): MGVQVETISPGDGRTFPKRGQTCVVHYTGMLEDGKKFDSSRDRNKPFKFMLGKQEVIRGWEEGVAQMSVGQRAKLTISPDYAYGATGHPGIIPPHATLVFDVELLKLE
CDK2 CCNA2 (human), sequence (P20248 whole entry, looked up, other chains not shown): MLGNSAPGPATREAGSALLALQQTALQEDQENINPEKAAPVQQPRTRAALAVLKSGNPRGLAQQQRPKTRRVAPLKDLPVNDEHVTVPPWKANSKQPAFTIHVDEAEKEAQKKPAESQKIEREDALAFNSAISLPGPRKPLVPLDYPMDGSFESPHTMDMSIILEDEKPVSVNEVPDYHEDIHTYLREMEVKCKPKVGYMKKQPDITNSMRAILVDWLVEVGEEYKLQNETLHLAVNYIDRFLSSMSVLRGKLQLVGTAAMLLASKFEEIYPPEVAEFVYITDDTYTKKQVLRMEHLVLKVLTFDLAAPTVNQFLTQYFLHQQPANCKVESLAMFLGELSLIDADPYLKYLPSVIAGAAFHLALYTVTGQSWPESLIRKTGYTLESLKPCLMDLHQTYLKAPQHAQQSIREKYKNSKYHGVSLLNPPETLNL
CDK2 CCNE1 (human), sequence (P24864 whole entry, looked up, other chains not shown): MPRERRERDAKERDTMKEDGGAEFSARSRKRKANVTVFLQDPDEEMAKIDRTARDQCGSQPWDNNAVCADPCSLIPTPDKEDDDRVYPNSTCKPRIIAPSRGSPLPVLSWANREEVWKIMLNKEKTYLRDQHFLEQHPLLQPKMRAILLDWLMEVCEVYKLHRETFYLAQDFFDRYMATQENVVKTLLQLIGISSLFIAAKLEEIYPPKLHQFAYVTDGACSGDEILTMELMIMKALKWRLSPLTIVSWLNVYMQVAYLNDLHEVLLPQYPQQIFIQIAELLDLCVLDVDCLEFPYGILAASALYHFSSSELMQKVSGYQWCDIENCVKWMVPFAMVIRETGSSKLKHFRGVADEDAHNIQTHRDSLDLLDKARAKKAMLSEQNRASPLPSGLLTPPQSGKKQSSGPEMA
CDK3 CCNE1 (human), sequence (P24864 whole entry, looked up): as the sequence (P24864 whole entry, looked up, other chains not shown) above
CDK3 CCNE1 (human), sequence (Q00526 whole entry, looked up): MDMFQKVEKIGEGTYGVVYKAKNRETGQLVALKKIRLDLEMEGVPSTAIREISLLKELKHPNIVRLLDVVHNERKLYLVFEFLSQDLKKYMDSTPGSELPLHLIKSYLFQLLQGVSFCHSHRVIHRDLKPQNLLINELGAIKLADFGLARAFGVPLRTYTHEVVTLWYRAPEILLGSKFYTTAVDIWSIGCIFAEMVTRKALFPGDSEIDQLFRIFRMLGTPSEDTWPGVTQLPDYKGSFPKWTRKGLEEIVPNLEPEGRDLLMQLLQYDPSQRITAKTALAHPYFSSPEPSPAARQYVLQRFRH
CDK7 CCNH MNAT1 (human), sequence (P50613 whole entry, looked up): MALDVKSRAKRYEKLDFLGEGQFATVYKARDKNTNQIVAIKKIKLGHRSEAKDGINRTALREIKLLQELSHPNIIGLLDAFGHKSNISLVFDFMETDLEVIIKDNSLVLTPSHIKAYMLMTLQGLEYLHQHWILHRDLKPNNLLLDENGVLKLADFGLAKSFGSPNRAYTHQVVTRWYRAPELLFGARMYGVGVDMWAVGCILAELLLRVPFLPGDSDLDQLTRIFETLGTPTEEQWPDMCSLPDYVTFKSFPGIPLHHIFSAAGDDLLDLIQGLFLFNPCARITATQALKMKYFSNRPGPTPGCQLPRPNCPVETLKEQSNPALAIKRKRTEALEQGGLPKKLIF
CDK7 CCNH MNAT1 (human), sequence (P51946 whole entry, looked up): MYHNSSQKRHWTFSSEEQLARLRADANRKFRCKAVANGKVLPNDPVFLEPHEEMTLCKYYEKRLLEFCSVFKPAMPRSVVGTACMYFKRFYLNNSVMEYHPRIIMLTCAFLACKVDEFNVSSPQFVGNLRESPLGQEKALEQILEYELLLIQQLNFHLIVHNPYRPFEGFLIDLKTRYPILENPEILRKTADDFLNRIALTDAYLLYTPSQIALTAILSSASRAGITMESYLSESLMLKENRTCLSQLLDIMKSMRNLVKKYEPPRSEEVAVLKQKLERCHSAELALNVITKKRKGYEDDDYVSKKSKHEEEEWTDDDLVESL
CDK7 CCNH MNAT1 (human), sequence (P51948 whole entry, looked up): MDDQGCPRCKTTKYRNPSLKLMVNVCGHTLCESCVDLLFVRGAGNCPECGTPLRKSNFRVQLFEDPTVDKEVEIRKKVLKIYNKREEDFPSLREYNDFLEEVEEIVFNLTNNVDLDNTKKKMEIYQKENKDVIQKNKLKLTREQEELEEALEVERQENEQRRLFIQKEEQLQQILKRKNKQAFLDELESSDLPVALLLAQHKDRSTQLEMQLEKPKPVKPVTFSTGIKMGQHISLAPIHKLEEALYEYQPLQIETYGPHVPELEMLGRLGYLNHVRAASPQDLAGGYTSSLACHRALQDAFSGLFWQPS

Row | Structure (SMILES) | residual activity ([1]; compound 10.0 µM) [%] | residual activity ([1]; compound 1.0 µM) [%] | residual activity ([2]; compound 1.0 µM) [%] | residual activity ([2]; compound 10.0 µM) [%] | residual activity ([3]; compound 1.0 µM) [%] | residual activity ([3]; compound 10.0 µM) [%] | also measured
1 | O=C(Nc1cccc(Nc2nccc(Nc3cccc(C(F)(F)F)c3)n2)c1)C1CC1 | 35 | – | – | – | – | – | –
2 | O=C1Nc2ccccc2/C1=C1\Nc2ccccc2\C1=N/O | 87 | 94 | 91 | 13 | 55 | 17 | –
3 | O=C1c2ccccc2-c2n[nH]c3cccc1c23 | 92 | 93 | 101 | 95 | 26 | -6 | –
4 | CO[C@H]1[C@@H](OC)C[C@H](C)[C@@H](OC)C2=CC(=O)C=C(NC(=O)/C(C)=C\C=C/[C@H](OC)[C@@H](OC(N)=O)/C(C)=C\[C@@H]1C)C2=O | – | – | – | – | – | – | residual activity (CDK2 CCNA2 (human); compound 1.0 µM): 138%; residual activity (CDK2 CCNA2 (human); compound 10.0 µM): 83%; residual activity (CDK2 CCNE1 (human); compound 1.0 µM): 104%; residual activity (CDK2 CCNE1 (human); compound 10.0 µM): 91%; residual activity (CDK3 CCNE1 (human); compound 1.0 µM): 100%; residual activity (CDK3 CCNE1 (human); compound 10.0 µM): 87%; residual activity (CDK7 CCNH MNAT1 (human)): 101%; residual activity (MTOR FKBP1A (human); compound 1.0 µM): 77%; residual activity (MTOR FKBP1A (human); compound 10.0 µM): 89%; residual activity ([4]; compound 1.0 µM): 92%; residual activity ([4]; compound 10.0 µM): 78%
5 | COC(=O)[C@]1(O)C[C@@H]2O[C@@]1(C)n1c3ccccc3c3c4c(c5c6ccccc6n2c5c31)C(=O)NC4 | – | – | – | – | – | -11 | –
6 | CN[C@@H]1C[C@H]2O[C@@](C)([C@@H]1OC)n1c3ccccc3c3c4c(c5c6ccccc6n2c5c31)C(=O)NC4 | – | – | – | – | 52 | – | –
